Like-named read-outs stand apart in the source and are kept apart here.
Legend:
human FXR protein = target: T1, human FXR protein (Homo sapiens, UniProt Q96RI1); experiment: FXR agonist binding ability: time-resolved fluorescence (LanthaScreen) FXR/coactivator assay; assay type: biochemical; settings: GST-labeled human FXR, fluorescein-labeled coactivator, TR-FRET
T1 construct: purchased Invitrogen
Description: FXR Agonist Binding Ability Evaluation of the activation effect of the compound of the present invention with regard to the binding of FXR to its co-stimulatory factor SRC-1 was conducted by using time-resolved analytical techniques. Protein: glutathione-S-transferase (GST)-labeled human FXR protein (Invitrogen) • 2. Coactivator: Fluorescein-labeled steroid receptor coactivator (SRC2-2) (Invitrogen) • 3. Detection reagent: LanthaScreen Time-Resolved Fluorescence Analysis Kit (Invitrogen) • 1. The compound was prepared into a 10 mM DMSO stock solution and stored in a −20° C. refrigerator for a long time. • 2. The compound was diluted to 1 mM before the experiment, and then the compound was diluted 3-fold to 10 concentration points using DMSO. Then use buffer G (Invitrogen, PV4553) to dilute these 10 concentration points by 50 times to become a working fluid. Add 10 μl of each working solution to each well of a 384-well plate. • 3. Prepare a human FXR protein solution (final concentration 20 nM) in chilled buffer G and add 5 μl of human FXR protein solution to each well of a 384-well plate. • 4. Prepare a mix of buffer G containing 2 μM fluorescein-labeled steroid receptor coactivator and 20 nM GST antibody. • 5. Add 5 μl of the mixture prepared in Step 4 to a 384-well plate. • 6. Centrifuge the 384-well plate at 1000 g for 1 minute. • 7. Incubate for 1 hour at room temperature in the dark. • 8. Read the 384-well plate at 520 nm and 495 nm on an Envision 2104 plate reader. • 9. Calculate the EC50 value of the activation effect of the compound.

[1] = Mouse pharmacokinetic studies (IV and PO); assay type: in vivo, Male CD-1 mice; settings: for PO F: PO 10 mg/kg vs IV 2.0 mg/kg; for Vd / AUC(0-t) / clearance / half-life / Cmax / Tmax: male, CD-1, plasma; for clearance: read-out: IV Cl; for half-life: read-out: IV T½ (converted)
Description: Mouse Pharmacokinetic Studies
Typical PK study procedure. For i.v. PK studies, a group of three fasted Male CD-1 mice were dosed with the compound (2.0 mg/kg, 0.50 mg/mL in 5% solutol in saline, clear solution), and 0.02 mL blood was collected at 0.0830, 0.250, 0.500, 1.00, 2.00, 4.00, 8.00, 24.0 h. For PO PK studies, a group of three fasted Male CD-1 mice were dosed with the compound (10 mg/kg, 1 mg/mL in 5% solutol in saline, clear solution), and 0.02 mL blood was collected at 0.250, 0.500, 1.00, 2.00, 4.00, 6.00, 8.00, 24.0 h. The blood was collected into EP tubes (containing EDTA K20.85-1.15 mg) and centrifuged at 3,000 g or 3,200 g at 4° C. for 10 min) and plasma was isolated and divided into two vials. One was used for bioanalysis and one was kept as backup. The samples were kept at −60° C. or below, until being analyzed by LC MS/MS. The samples were analyzed with AB SCIEX INSTRUMENTS LC-MS/MS AU-Triple Quad 6500 Plus and data were processed with Phoenix WinNonlin 6.3 (IV-noncompartmental model and PO-noncompartmental model).

hFXR-LBD-GAL4 = target: T2, hFXR-LBD-GAL4 (Homo sapiens, UniProt Q96RI1); experiment: FXR agonist transactivation ability: luciferase reporter gene in HEK293T; assay type: cell-based; settings: read-out: Cell activity
T2 construct: GAL4 (fusion partner); host or cells: HEK293T
T2 sequence (Q96RI1 262-486 limits assumed): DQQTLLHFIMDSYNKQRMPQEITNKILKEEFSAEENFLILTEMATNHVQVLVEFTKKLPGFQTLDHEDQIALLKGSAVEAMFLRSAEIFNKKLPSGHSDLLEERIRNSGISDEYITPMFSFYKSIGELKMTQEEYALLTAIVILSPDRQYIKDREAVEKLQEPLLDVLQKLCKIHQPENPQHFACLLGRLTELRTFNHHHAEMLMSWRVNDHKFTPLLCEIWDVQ
Description: FXR Agonist Transactivation Ability
Evaluation of the ability of the compound of the present invention to promote FXR transactivation was conducted by using luciferase reporter gene expression technology.
• 1. Cell line: HEK293T (Invitrogen) • 2. Expression plasmid: pBIND-hFXR-LBD-GAL4 (Promega), pGL4.35-luciferase (Promega) • 3. Cell culture medium: 10% serum and penicillin/streptomycin double antibody in DMEM medium • 4. Detection reagent: Steady-Glo fluorescence detection system (Promega). • 5. Transfection reagent: TransIT-293 Transfection Reagent (MIRUS BIO)
• 1. The compound was prepared into a 10 mM DMSO stock solution and stored in a −20° C. refrigerator for a long time. • 2. Resuscitation HEK293T cells were seeded in 10 cm culture dishes at a concentration of 5.5×10^6 and incubated for 16 hours at 37° C. in a 5% CO2 incubator. • 3. Return the transfection reagent to room temperature before transfection. The Trans-IT solution was added dropwise to Opti-MEM, and mixed by inversion for 5 minutes; the expression plasmid was added, mixed by inversion, and incubated at room temperature for 20 minutes. • 4. Add the transfection mixture from Step 3 to the prepared 10 cm dish in Step 2 and incubate for 5-6 hours in a 5% CO2 incubator. • 5. Dilute the compound 3 folds to 10 concentration points using DMSO; add 25 nl of compound per well in a 384-well plate using an Echo 550 sonic pipette; add HEK293T cells to the 384-well plate at a concentration of 15,000 cells/well; 37° C. incubate for 16-20 hours in a 5% CO2 incubator. • 6. Add 25 μl of Steady-Glo Fluorescent Reagent to each well and read the fluorescence on an Envision 2104 plate reader. • 7. Calculate the EC50 value of the activation of the compound.

[2] = IV 2.0 mg/kg, read-out: IV AUC 0-t
[3] = PO 10 mg/kg, read-out: PO AUC 0-t

EC50 (human FXR protein) [nM] | PO F [1] [%] | Vd ([1]; IV 2.0 mg/kg) [L/kg] | AUC(0-t) [1, 2] [ng·h/mL] | clearance ([1]; IV 2.0 mg/kg) [mL/min/kg] | half-life ([1]; IV 2.0 mg/kg) [min] | Cmax ([1]; PO 10 mg/kg) [ng/mL] | Tmax ([1]; PO 10 mg/kg) [min] | AUC(0-t) [1, 3] [ng·h/mL] | EC50 (hFXR-LBD-GAL4) [nM] | Compound
50 to 500 | 52.6 | 0.66 | 3550 | 9.26 | 96 | 5500 | 25 | 9360 | < 200 | Cc1nc(Oc2ccc3cc(OCc4c(-c5c(Cl)cccc5Cl)noc4C4CC4)ccc3c2)ccc1C(=O)O [Compound 10, 6-((6-((5-cyclopropyl-3-(2,6-dichlorophenyl)isoxazol-4-yl)methoxy)naphthalen-2-yl)oxy)-2-methylnicotinic acid]
< 50 | 33.3 | 0.294 | 4980 | 6.66 | 86.4 | 5730 | 30 | 8330 | 500 to 1000 | O=C(O)c1cccc(Oc2ccc3cc(OCc4c(-c5c(Cl)cccc5Cl)noc4C4CC4)ccc3c2)n1 [Compound 11, 6-((6-((5-cyclopropyl-3-(2,6-dichlorophenyl)isoxazol-4-yl)methoxy)naphthalen-2-yl)oxy)picolinic acid]
50 to 500 | 46.2 | 1.75 | 969 | 35.8 | 76.8 | 1480 | 30 | 2220 | < 200 | O=C(O)c1ccc(Oc2ccc3cc(OCc4c(-c5c(Cl)cccc5Cl)noc4C4CC4)ccc3c2Cl)nc1 [Compound 21, 6-((1-chloro-6-((5-cyclopropyl-3-(2,6-dichlorophenyl)isoxazol-4-yl)methoxy)naphthalen-2-yl)oxy)nicotinic acid]
< 50 | 32 | 1.84 | 448 | 73.8 | 50.2 | 894 | 30 | 718 | < 200 | O=C(O)c1ccc(Oc2cccc3cc(OCc4c(-c5c(Cl)cccc5Cl)noc4C4CC4)ccc23)nc1 [Compound 22, 6-((6-((5-cyclopropyl-3-(2,6-dichlorophenyl)isoxazol-4-yl)methoxy)naphthalen-1-yl)oxy)nicotinic acid]
< 50 | 12 | 2.94 | 330 | 105 | 56.4 | 209 | 18 | 198 | < 200 | O=C(O)c1ccnc(Oc2cccc3cc(OCc4c(-c5c(Cl)cccc5Cl)noc4C4CC4)ccc23)c1 [Compound 24, 2-((6-((5-cyclopropyl-3-(2,6-dichlorophenyl)isoxazol-4-yl)methoxy)naphthalen-1-yl)oxy)isonicotinic acid]
< 50 | 17 | 0.745 | 969 | 35 | 37.2 | 900 | 30 | 830 | < 200 | O=C(O)c1ccc(F)cc1Oc1cccc2cc(OCc3c(-c4c(Cl)cccc4Cl)noc3C3CC3)ccc12 [Compound 26, 2-((6-((5-cyclopropyl-3-(2,6-dichlorophenyl)isoxazol-4-yl)methoxy)naphthalen-1-yl)oxy)-4-fluorobenzoic acid]
50 to 500 | – | – | – | – | – | – | – | – | > 1000 | Cc1nc(Oc2ccc3c(F)c(OCc4c(-c5c(Cl)cccc5Cl)noc4C4CC4)ccc3c2)ccc1C(=O)O [Compound 37, 6-((6-((5-cyclopropyl-3-(2,6-dichlorophenyl)isoxazol-4-yl)methoxy)-5-fluoronaphthalen-2-yl)oxy)-2-methylnicotinic acid]
< 50 | – | – | – | – | – | – | – | – | 500 to 1000 | O=C(O)c1ccc(Oc2ccc3ccc(OCc4c(-c5c(Cl)cccc5Cl)noc4C4CC4)c(F)c3c2)nc1 [Compound 38, 6-((7-((5-cyclopropyl-3-(2,6-dichlorophenyl)isoxazol-4-yl)methoxy)-8-fluoronaphthalen-2-yl)oxy)nicotinic acid]
< 50 | – | – | – | – | – | – | – | – | < 200 | Cc1nc(Oc2cccc3c(F)c(OCc4c(-c5c(Cl)cccc5Cl)noc4C4CC4)ccc23)ccc1C(=O)O [Compound 39, 6-((6-((5-cyclopropyl-3-(2,6-dichlorophenyl)isoxazol-4-yl)methoxy)-5-fluoronaphthalen-1-yl)oxy)-2-methylnicotinic acid]
> 500 | – | – | – | – | – | – | – | – | > 1000 | O=C(O)c1ccc(Oc2c(Cl)cc(Cl)c3cc(OCc4c(-c5c(Cl)cccc5Cl)noc4C4CC4)ccc23)nc1 [Compound 41, 6-((2,4-dichloro-6-((5-cyclopropyl-3-(2,6-dichlorophenyl)isoxazol-4-yl)methoxy)naphthalen-1-yl)oxy)nicotinic acid]
> 500 | – | – | – | – | – | – | – | – | > 1000 | O=C(O)c1ccc(Oc2c(Cl)ccc3cc(OCc4c(-c5c(Cl)cccc5Cl)noc4C4CC4)ccc23)nc1 [Compound 42, 6-((2-chloro-6-((5-cyclopropyl-3-(2,6-dichlorophenyl)isoxazol-4-yl)methoxy)naphthalen-1-yl)oxy)nicotinic acid]
50 to 500 | – | – | – | – | – | – | – | – | 500 to 1000 | Cc1nc(Oc2ccc3cc(OCc4c(-c5c(Cl)cccc5Cl)noc4C4CC4)ccc3c2Cl)ccc1C(=O)O [Compound 43, 6-((1-chloro-6-((5-cyclopropyl-3-(2,6-dichlorophenyl)isoxazol-4-yl)methoxy)naphthalen-2-yl)oxy)-2-methylnicotinic acid]
50 to 500 | – | – | – | – | – | – | – | – | < 200 | Cc1nc(Oc2c(Cl)ccc3cc(OCc4c(-c5c(Cl)cccc5Cl)noc4C4CC4)ccc23)ccc1C(=O)O [Compound 46, 6((2-chloro-6 ((5-cyclopropyl-3-(2,6-dichlorophenyl)isoxazol-4-yl)methoxy)naphthalen-1-yl)oxy)-2-methylnicotinic acid]
< 50 | – | – | – | – | – | – | – | – | < 200 | O=C(O)c1cccnc1Oc1c(F)ccc2cc(OCc3c(-c4c(Cl)cccc4Cl)noc3C3CC3)ccc12 [Compound 48, 2-((6-((5-cyclopropyl-3-(2,6-dichlorophenyl)isoxazol-4-yl)methoxy)-2-fluoronaphthalen-1-yl)oxy)nicotinic acid]
50 to 500 | – | – | – | – | – | – | – | – | > 1000 | O=C(O)c1c(F)cccc1Oc1cccc2cc(OCc3c(-c4c(Cl)cccc4Cl)noc3C3CC3)ccc12 [Compound 49]
